Source: ChEMBL document CHEMBL1140350, “The endocannabinoid system: drug targets, lead compounds, and potential therapeutic applications” (J Med Chem, 2005)

Tests used:
[1] = Binding affinity for cannabinoid receptor 2
Cannabinoid receptor = Cannabinoid receptor (Homo sapiens, UniProt P34972+P21554); assay: Binding affinity for Cannabinoid receptor; assay type: protein assay
[2] = target: T1, N-acylethanolamine-hydrolyzing acid amidase (Homo sapiens, UniProt Q02083); assay: Inhibitory concentration against N-palmitoylethanolamine acid amidase
T1 sequence (Q02083 whole entry): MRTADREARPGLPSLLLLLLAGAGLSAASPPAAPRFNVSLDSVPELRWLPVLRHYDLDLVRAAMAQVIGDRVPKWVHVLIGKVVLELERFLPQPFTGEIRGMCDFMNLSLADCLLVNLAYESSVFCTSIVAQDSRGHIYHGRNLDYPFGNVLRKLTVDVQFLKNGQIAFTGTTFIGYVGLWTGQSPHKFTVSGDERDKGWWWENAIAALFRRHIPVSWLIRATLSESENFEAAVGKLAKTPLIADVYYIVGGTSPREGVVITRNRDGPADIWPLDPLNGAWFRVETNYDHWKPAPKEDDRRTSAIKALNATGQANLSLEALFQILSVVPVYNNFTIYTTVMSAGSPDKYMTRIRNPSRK

Mus musculus = organism: Mus musculus; assay: Concentration required to inhibit anandamide uptake from the extracellular medium into cells; assay type: functional, cell-based
Homo sapiens = organism: Homo sapiens; assay: Concentration required to inhibit anandamide uptake into human monocytes; assay type: functional
[3] = target: T2, Fatty-acid amide hydrolase 1 (Homo sapiens, UniProt O00519); assay: Binding affinity for fatty acid amide hydrolase
T2 sequence (O00519 whole entry): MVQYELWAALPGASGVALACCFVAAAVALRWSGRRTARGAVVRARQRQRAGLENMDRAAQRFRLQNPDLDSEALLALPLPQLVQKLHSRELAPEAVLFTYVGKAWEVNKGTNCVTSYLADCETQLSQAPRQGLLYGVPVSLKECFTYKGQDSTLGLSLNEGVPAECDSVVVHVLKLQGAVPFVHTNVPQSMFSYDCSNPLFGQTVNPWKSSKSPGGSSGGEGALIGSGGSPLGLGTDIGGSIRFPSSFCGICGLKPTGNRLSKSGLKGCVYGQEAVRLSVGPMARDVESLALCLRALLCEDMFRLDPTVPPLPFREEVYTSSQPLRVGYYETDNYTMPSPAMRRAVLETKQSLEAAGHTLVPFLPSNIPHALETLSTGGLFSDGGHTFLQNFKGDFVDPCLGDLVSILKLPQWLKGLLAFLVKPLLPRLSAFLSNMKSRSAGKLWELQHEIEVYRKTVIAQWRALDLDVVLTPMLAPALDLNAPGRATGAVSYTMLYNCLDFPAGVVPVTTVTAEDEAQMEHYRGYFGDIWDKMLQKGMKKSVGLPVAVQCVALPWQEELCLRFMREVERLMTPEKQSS

[4] = target: T2, Fatty-acid amide hydrolase 1; assay: Irreversible inhibition of fatty acid amide hydrolase
[5] = target: T2, Fatty-acid amide hydrolase 1; assay: Inhibitory concentration against fatty acid amide hydrolase
Monoglyceride lipase = target: T3, Monoglyceride lipase (Homo sapiens, UniProt Q99685); assay: Inhibitory concentration against monoacylglycerol lipase
T3 sequence (Q99685 whole entry): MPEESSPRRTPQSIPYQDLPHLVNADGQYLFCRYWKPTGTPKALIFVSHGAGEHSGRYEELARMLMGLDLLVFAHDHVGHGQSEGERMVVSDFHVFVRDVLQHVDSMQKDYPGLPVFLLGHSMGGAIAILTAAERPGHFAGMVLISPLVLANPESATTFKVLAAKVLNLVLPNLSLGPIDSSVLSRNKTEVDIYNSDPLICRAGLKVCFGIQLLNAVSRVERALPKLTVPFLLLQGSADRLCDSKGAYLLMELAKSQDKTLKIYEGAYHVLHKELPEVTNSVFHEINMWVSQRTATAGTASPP

[6] = target: T4, Fatty-acid amide hydrolase 1 (Mus musculus) (UniProt O08914); assay: Inhibitory potency against fatty acid amide hydrolase activity in mouse brain microsomes in presence of 58 uM anandamide at 160 uM; assay type: functional; settings: Microsome
T4 sequence (whole entry): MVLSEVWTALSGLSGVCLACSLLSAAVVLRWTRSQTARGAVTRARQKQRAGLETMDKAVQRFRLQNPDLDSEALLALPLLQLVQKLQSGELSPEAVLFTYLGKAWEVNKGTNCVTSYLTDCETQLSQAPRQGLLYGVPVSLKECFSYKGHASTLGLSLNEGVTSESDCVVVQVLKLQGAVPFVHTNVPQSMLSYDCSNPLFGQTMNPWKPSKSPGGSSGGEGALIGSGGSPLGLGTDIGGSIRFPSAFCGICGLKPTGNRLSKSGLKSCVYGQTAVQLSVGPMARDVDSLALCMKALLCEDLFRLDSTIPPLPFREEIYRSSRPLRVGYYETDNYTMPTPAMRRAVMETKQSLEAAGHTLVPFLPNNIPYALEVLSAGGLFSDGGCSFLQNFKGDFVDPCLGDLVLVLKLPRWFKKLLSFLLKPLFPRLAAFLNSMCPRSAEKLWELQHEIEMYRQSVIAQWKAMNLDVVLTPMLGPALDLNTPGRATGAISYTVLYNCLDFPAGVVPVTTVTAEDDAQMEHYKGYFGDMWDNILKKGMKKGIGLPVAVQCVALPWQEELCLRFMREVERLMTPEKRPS

[7] = target: T2, Fatty-acid amide hydrolase 1; assay: Inhibition of fatty acid amide hydrolase; range =. 23-3 uM
[8] = target: T2, Fatty-acid amide hydrolase 1; assay: Inhibition of fatty acid amide hydrolase; range = 4.1-7 uM
Cannabinoid receptor 1 [9] = target: T5, Cannabinoid receptor 1 (Rattus norvegicus, UniProt P20272); assay: (§1) Binding affinity for cannabinoid receptor 1
T5 sequence (P20272 whole entry): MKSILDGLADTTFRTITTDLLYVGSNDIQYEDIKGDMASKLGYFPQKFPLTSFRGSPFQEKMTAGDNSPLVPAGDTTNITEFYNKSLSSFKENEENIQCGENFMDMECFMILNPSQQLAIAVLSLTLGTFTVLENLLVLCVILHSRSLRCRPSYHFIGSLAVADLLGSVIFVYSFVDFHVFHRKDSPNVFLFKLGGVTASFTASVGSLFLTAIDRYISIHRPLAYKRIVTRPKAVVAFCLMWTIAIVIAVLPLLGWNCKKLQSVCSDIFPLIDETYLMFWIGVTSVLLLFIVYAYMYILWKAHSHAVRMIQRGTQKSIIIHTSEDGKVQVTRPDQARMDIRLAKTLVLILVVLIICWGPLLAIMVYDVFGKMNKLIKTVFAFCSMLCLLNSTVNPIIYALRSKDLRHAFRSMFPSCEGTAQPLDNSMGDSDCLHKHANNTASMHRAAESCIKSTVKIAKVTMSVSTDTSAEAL

[10] = target: T6, N-acylethanolamine-hydrolyzing acid amidase (Homo sapiens) (UniProt Q02083); assay: Percent inhibition aganist N-palmitoylethanolamine acid amidase at 10 uM
T6 sequence (whole entry): T1 sequence (Q02083 whole entry)

Cannabinoid receptor 1 [11] = target: Cannabinoid receptor 1 (Homo sapiens, UniProt P21554); assay: as §1
Cannabinoid receptor 1 (Homo sapiens, UniProt P21554), sequence (P21554 whole entry): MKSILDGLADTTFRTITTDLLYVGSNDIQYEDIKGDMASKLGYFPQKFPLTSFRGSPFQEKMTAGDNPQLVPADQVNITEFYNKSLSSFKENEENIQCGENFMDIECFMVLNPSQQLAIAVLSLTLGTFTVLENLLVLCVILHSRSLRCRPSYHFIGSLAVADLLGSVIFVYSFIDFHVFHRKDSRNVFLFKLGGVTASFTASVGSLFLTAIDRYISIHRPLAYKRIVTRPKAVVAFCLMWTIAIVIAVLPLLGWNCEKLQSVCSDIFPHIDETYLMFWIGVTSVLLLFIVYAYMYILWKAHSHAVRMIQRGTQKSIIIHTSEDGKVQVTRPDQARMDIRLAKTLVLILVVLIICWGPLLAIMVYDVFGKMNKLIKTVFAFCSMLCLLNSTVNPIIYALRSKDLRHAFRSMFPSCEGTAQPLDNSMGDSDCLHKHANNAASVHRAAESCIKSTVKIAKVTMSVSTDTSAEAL

Cannabinoid receptor 1 [12] = target: T5, Cannabinoid receptor 1; assay: Inhibition of [3H]CP-55940 binding to rat cannabinoid receptor 1
[13] = target: T2, Fatty-acid amide hydrolase 1; assay: Apparent binding affinity for fatty acid amide hydrolase
[14] = target: T2, Fatty-acid amide hydrolase 1; assay: Binding affinity for human fatty acid amide hydrolase
[15] = target: T2, Fatty-acid amide hydrolase 1; assay: Irreversible inhibition of fatty acid amide hydrolase; range=. 5-6 nM

Cc1c(C(=O)c2cccc3ccccc23)c2cccc3c2n1[C@H](CN1CCOCC1)CO3 [WIN-552122] showed a Ki [1] of 0.0018 µM.
For CCCCCC[C@@H](C)OC(=O)CC(=O)CBr, the Ki (Cannabinoid receptor) was 0.8 µM.
With CCCCCCCCCCCCCCCC(=O)OC1CCCCC1 [CYCLOHEXYL PALMITATE] the IC50 [2] was 19 µM.
Compound CCCCC/C=C\C/C=C\C/C=C\C/C=C\CCCC(=O)Nc1ccc(O)cc1 has an IC50 (Mus musculus) of roughly 10 µM.
Work on C=CCOc1ccc(CN(C/C=C/c2ccccc2)CCCC)cc1 yielded an IC50 (Homo sapiens) of 0.09 µM.
For CCCCCCCC/C=C\CCCCCCCC(=O)c1nc2ncccc2o1, the Ki [3] was 0.0023 µM.
Work on CCCCC/C=C\C/C=C\C/C=C\C/C=C\CCCCS(=O)(=O)F yielded an IC50 [4] of 0.0001 µM.
Compound CC(C)(/C=C\C/C=C\C/C=C\C/C=C\CCCC(=O)OCC(O)CO)CCCCC#N (stereo not drawn) has an IC50 [5] of roughly 11 µM and an IC50 (Monoglyceride lipase) of roughly 11 µM.
Compound CCCCCCCCCCCCCCCNC(=O)COC(C)=O [ACETIC ACID PENTADECYLCARBAMOYLMETHYL ESTER] has an IC50 [5] of 8 µM.
O=C(CCCCCCc1ccccc1)c1nc2ncccc2o1 gave an IC50 [5] of 0.0021 µM.
For CCCCCCCCCCCCCCCNC(=O)CCO, the IC50 [2] was 54 µM.
In the case of CCCCC/C=C\C/C=C\C/C=C\C/C=C\CCCC(=O)NCCO [ANANDAMIDE], the Ki [1] is reported as 0.37 µM.
In the case of CCCCCCCCCCCCCCCCCCS(=O)(=O)F [OCTADECANESULFONYL FLUORIDE], the IC50 [4] is reported as 0.004 µM.
C=C(C)[C@@H]1CCC(C)=C[C@H]1c1c(O)cc(CCCCC)cc1O gave an inhibition [6] of 66%.
Work on CCCCC/C=C\C/C=C\C/C=C\C/C=C\CCCC(=O)C(F)(F)F [ARACHIDONYL TRIFLUOROMETHYLKETONE] yielded an IC50 [7] of 3 µM.
In the case of CCCCCCCCCCCCCCCCOC(=O)CC [HEXADECYLPROPIONATE], the IC50 [2] is reported as 32 µM.
In the case of CCCCC/C=C\C/C=C\C/C=C\C/C=C\CCCC(=O)NCC(=O)O [ARACHIDONOYL GLYCINE], the IC50 [8] is reported as 7 µM.
Compound CCCCC/C=C\C/C=C\C/C=C\C/C=C\CCCC(=O)NCCc1c[nH]c2ccc(O)cc12 has an IC50 [5] of 12 µM.
For CCCCC/C=C\C/C=C\C/C=C\C/C=C\CCCCOC(CO)CO, the Ki (Cannabinoid receptor 1 [9]) was 0.021 µM.
CCCCCCCCCCCCCCCNC(=O)c1ccccc1 gave an inhibition [10] of 61%.
O=C1O/C(=C/Br)CCC1c1cccc2ccccc12 (stereo not drawn) [BROMOENOL LACTONE] gave an IC50 [4] of 0.8 µM.
CC(C)c1cccc(C(C)C)c1O [PROPOFOL] gave an IC50 [5] of 52 µM.
CCCCC/C=C\C/C=C\C/C=C\C/C=C\CCCC(=O)OCCN showed a Ki [1] of 1.4 µM and a Ki (Cannabinoid receptor 1 [9]) of 1.9 µM.
Work on CCCCCCCCCCC[C@@H](C[C@@H]1OC(=O)[C@H]1CCCCCC)OC(=O)[C@H](CC(C)C)NC=O [ORLISTAT] yielded an IC50 (Cannabinoid receptor 1 [11]) of no more than 0.1 µM.
Compound CCCCCCCC/C=C\CCCCCCCC(=O)C(F)(F)F has a Ki [3] of 0.0012 µM.
CCCCC/C=C\C/C=C\C/C=C\C/C=C\CCC(C)C(=O)OCC(O)CO (stereo not drawn) showed an IC50 [5] of roughly 11 µM and an IC50 (Monoglyceride lipase) of roughly 11 µM.
CCCCC/C=C\C/C=C\C/C=C\C/C=C\CCCC(=O)c1nc2ncccc2o1 gave a Ki [3] of 0.001 µM.
For CCCCCc1cc(O)c2c(c1)OC(C)(C)[C@@H]1CCC(C)=C[C@@H]21 [DRONABINOL], the Ki [1] was 0.02 µM and the inhibition [6] was 31%.
For CC(C)(/C=C\C/C=C\C/C=C\C/C=C\CCCC(=O)OCC(O)CO)CCCCO (stereo not drawn), the IC50 [5] was roughly 11 µM and the IC50 (Monoglyceride lipase) was roughly 11 µM.
In the case of CCCCCCCCCCCCCCCC(=O)NCC(=O)OC, the IC50 [5] is reported as 10 µM.
In the case of CCCCCCCCCCCCCCCC(=O)NC(C)C [HEXADECANOIC ACID ISOPROPYLAMIDE], the IC50 [5] is reported as 0.013 µM.
In the case of O=S(=O)(F)Cc1ccccc1 [PHENYLMETHYLSULFONYLFLUORIDE], the IC50 [4] is reported as 13 µM.
With CCCCCCCC/C=C\CCCCCCCC(N)=O [OLEAMIDE] the Ki (Cannabinoid receptor 1 [12]) was 1.14 µM.
With CCCCCCCC/C=C\CCCCCCC(C)C(=O)c1nc2ncccc2o1 (stereo not drawn) the Ki [3] was 0.0091 µM.
Work on CCCCCCCCCCCCCCCNC(=O)C1CCCCC1 [CYCLOHEXANECARBOXYLIC ACID PENTADECYLAMIDE] yielded an inhibition [10] of 66% and an IC50 [2] of 4.5 µM.
Work on CCCCCc1cc(O)c2c(c1)OC(C)(C)c1ccc(C)cc1-2 yielded an inhibition [6] of 46%.
For CCCCCCCc1ccc(CCCCCCC(=O)C(F)(F)F)cc1, the Ki [13] was 0.096 µM.
With CCCCC/C=C\C/C=C\C/C=C\C/C=C\CCCC(=O)OCCO the IC50 [5] was greater than 25 µM and the IC50 (Monoglyceride lipase) was 25 µM.
In the case of O=C(CCCCCc1ccccc1)c1nc2ncccc2o1, the Ki [14] is reported as 94 pM.
For CCCCCCCCCCCCS(=O)(=O)F [DODECANESULFONYL FLUORIDE], the IC50 [4] was 0.003 µM.
Compound O=C(CCCCCCCc1ccccc1)C(F)(F)F has a Ki [3] of 0.025 µM.
For CCCCCCC(C)(C)c1ccc([C@@H]2C[C@H](O)CC[C@H]2CCCO)c(O)c1 [CP-55940], the Ki [1] was 0.0026 µM.
Compound CCCCC/C=C\C/C=C\C/C=C\C/C=C\CCCC(=O)NCCc1ccc(O)c(O)c1 [ARACHIDONOYL DOPAMINE] has a Ki [1] of 0.012 µM and a Ki (Cannabinoid receptor 1 [9]) of 0.25 µM.
For CCCCC/C=C\C/C=C\C/C=C\C/C=C\CCCC(=O)[CH-][N+]#N, the IC50 [15] was 0.006 µM.
CCCCC/C=C\C/C=C\CC/C=C\CCCC(=O)NCCc1ccc(O)c(O)c1 gave an IC50 [5] of 19 µM.
